According to patent publication US5593678A, “Protection of teleost fish” (University of Georgia Research Foundation, priority 1994, dated 1997):
“Also recorded” adds a separate entry of the source. Counter-ions that a name gives are not always drawn. Like-named read-outs stand apart in the source and are kept apart here.

Experiments:
[1] = test system: NCC (lysis of IM-9 target cells); test: NCC cytotoxicity (51Cr release) after treatment with protein kinase inhibitors; assay type: cell-based, channel catfish (Ictalurus punctatus); conditions: for Percentage specific release: media control 25.9%; for activation at 30 µM / activation at 60 µM: read-out: Percentage increase (vs media control)
Experimental: To prepare NCC, fish were lightly anesthetized with ethyl m-aminobenzoate (Sigma Chemical Co.) in water and sacrificed.
IM-9 target cells were used in cytotoxicity assays. […] Cells were grown in stationary suspension cultures and were maintained at approximately 1×10^6 cells/ml. […]

[2] = test system: cyclic nucleotide dependent kinases; conditions: cited from earlier work
[3] = test system: protein kinase C (PKC); conditions: cited from earlier work
[4] = test system: NCC membrane proteins (tyrosine phosphorylation); test: Tyrosine phosphorylation of NCC membrane proteins following mab 5C6 activation (Western blot); assay type: cell-based, channel catfish (Ictalurus punctatus); conditions: NCC pretreated two hours with inhibitor; 100 μg/ml genistein or 30 μM HA1004
Experimental: FIG. 1. Tyrosine phosphorylation of NCC membrane proteins following activation by mab 5C6. NCC were resuspended at 500×10^6 /ml and 200 μl aliquots were incubated at 37° C. with either 125 μl ammonium sulfate precipitate mab 5C6 (left panel) or an isotype control (right panel). At the indicated timed intervals, the reactions were terminated by addition of 325 μl of 2×lysis buffer. Lysates were immunoprecipitated with mab 4G10, electrophoresed on 11% SDS-PAGE, blotted onto nitrocellulose, and probed with mab 4G10. Molecular weight markers are indicated by the arrows.
FIG. 2. Tyrosine phosphorylation of Percoll-enriched NCC. Fish NCC were centrifuged for 15 minutes at 500 g on a 45.5% Percoll cushion. The cells at the interphase were harvested, washed, and treated with mab 5C6 for 0 and 20 sec before addition of 2×lysis buffer. Lysates were electrophoresed, blotted on nitrocellulose, and probed with mab 4G10.
FIG. 3. Effects of genistein on tyrosine phosphorylation in fish NCC. Fish NCC were incubated with media, genistein (100 μg/ml), or HA1004 (30 μM) for two hours prior to activation for zero time with mab 5C6 (left lane) and 40 sec with either mab 5C6 (middle lane) or an irrelevant IgM isotype control (right lane). Reactions were stopped by addition of lysis buffer and lysates were processed as explained in the legends to FIGS. 1 and 2. […]

[5] = test system: NCC (lysis of IM-9 target cells); test: Costimulation assay: NCC cytotoxicity (51Cr release) with A23187 or mab 5C6; assay type: cell-based, channel catfish (Ictalurus punctatus); conditions: for activity at 60 µM: Ictalurus punctatus, IM-9, 2 h, mabs 1:50 dilution, H-7, HA1004 60 μM, genistein 0.5 μg/ml
Experimental: Incubation was two hours and cells were either washed or not washed before addition to ^51 Cr-labeled IM-9 target cells (4- to 6-hour cytotoxicity assays).
To further investigate this inhibitory effect, a costimulus experiment was done using a calcium ionophore, e.g., A23187, combined with the various inhibitors and activators of NCC activity. Pretreatment of NCC with A23187 produced an almost identical increase in cytotoxicity regardless of the identity of the first treatment.
In a second costimulus experiment mab 5C6 was used (instead of A23187) to activate cytotoxicity (Table 6).

[6] = test system: Na^+ /K^+ ATPase; conditions: cited from earlier work

CNCCNS(=O)(=O)c1cccc2cnccc12.Cl.Cl [H-8, N-(2-(methylamino)ethyl)-5-isoquinolinesulfonamide di-HCl]
inhibition of NCC cytotoxicity [1]: time and dose dependent inhibition of NCC cytotoxicity
inhibition at 30 µM ([1]; Ictalurus punctatus, 1.5 h, read-out: Percentage inhibition (NCC activity), 30 μM, 90 minutes, washed, E:T 80.1): 0%
inhibition at 60 µM ([1]; Ictalurus punctatus, 1.5 h, read-out: Percentage inhibition (NCC activity), 60 μM, 90 minutes, washed, E:T 80.1): 13.8%
inhibition at 150 µM ([1]; Ictalurus punctatus, 1.5 h, read-out: Percentage inhibition (NCC activity), 150 μM, 90 minutes, washed, E:T 80.1): 36.9%
inhibition at 300 µM ([1]; Ictalurus punctatus, 1.5 h, read-out: Percentage inhibition (NCC activity), 300 μM, 90 minutes, washed, E:T 80.1): 46.5%
inhibition of NCC activity, comparison with H-7 ([1]; approximately 150 μM H-8, di-HCl): levels of inhibition comparable to that obtained with an approximately 30 μM concentration of H-7
inhibition of cyclic nucleotide dependent kinases [2]: more inhibitory of cyclic nucleotide dependent kinases
effect on protein kinase C ([3]; di-HCl): almost no effect on PKC activity; also recorded: limited effect on PKC

N=C(N)NCCNS(=O)(=O)c1cccc2cnccc12 [HA1004, N-(2-guanidoethyl)-5-isoquinolinesulfonamide di-HCl]
effect of removal (washing) of inhibitor on cytotoxicity [1]: did not reduce the augmentation of cytotoxicity
Percentage specific release ([1]; 30 μM, 60 min): 38.7%
Percentage specific release ([1]; 30 μM, 120 min): 39.0%
Percentage specific release ([1]; 30 μM, 180 min/wash): 36.0%
Percentage specific release ([1]; 30 μM, 180 min): 35.9%
Percentage specific release ([1]; 60 μM, 60 min): 38.5%
Percentage specific release ([1]; 60 μM, 120 min): 36.9%
Percentage specific release ([1]; 60 μM, 180 min/wash): 34.2%
Percentage specific release ([1]; 60 μM, 180 min): 36.5%
activation at 30 µM ([1]; Ictalurus punctatus, 1 h, 30 μM, 60 min): 49.2%
activation at 60 µM ([1]; Ictalurus punctatus, 1 h, 60 μM, 60 min): 48.3%
activation at 30 µM ([1]; Ictalurus punctatus, 2 h, 30 μM, 120 min): 50.2%
activation at 60 µM ([1]; Ictalurus punctatus, 2 h, 60 μM, 120 min): 42.1%
activation at 30 µM ([1]; Ictalurus punctatus, 3 h, 30 μM, 180 min/wash): 38.7%
activation at 30 µM ([1]; Ictalurus punctatus, 3 h, 30 μM, 180 min): 38.5%
activation at 60 µM ([1]; Ictalurus punctatus, 3 h, 60 μM, 180 min/wash): 31.8%
activation at 60 µM ([1]; Ictalurus punctatus, 3 h, 60 μM, 180 min): 40.6%
specific protein phosphorylation after mab 5C6 [4]: did occur
inhibition of cyclic nucleotide dependent kinases [2]: inhibits mostly cyclic nucleotide dependent kinases
effect on protein kinase C [3]: no effect on PKC
Percentage specific release ([5]; E:T 40:1, 10^-4 M A23187, 60 μM H7 and HA1004, 0.5 μg/ml genistein, 1:3 dilution of tissue culture supernatant, media control 20.6): 33.2%
activity at 60 µM ([5]; 4 × 10^6 NCC/ml, read-out: Percentage of control (E:T ratio) 40%): 211%
activity at 60 µM ([5]; read-out: Percentage of control (E:T ratio) 20%): 243%
influence of pretreatment on A23187 activation ([5]; pretreatment prior to A23187, di-HCl): did not appear to be additive and did not influence the final level of activation

[O]=[V+2] [vanadyl ion, vanadyl (IV) ion]
Na^+ /K^+ ATPase inhibition [6]: little effect
